Data published in US20240417359A1, “PRECURSORS OF PHENOLIC FRAGRANT COMPOUNDS” (GIVAUDAN SA, priority 2021, published 2024).

Columns and labels:
[1] = Application in shampoo base: sensory evaluation of washed hair swatches by expert panel; parameters: species or system human; conditions: Table 4; for odour intensity, wet: wet hair swatch, scale 0 (odourless) to 5 (extremely strong); for odour intensity, 1 day: dried hair swatch 1 day; for odour intensity, 1 day / odour intensity, 3 days: scale 0 to 5; for odour intensity, 3 days: dried hair swatch 3 days
Procedure: Odour-neutral human hair swatches were wetted with warm tap water and lathered delicately with 2 mL of the above hair shampoo samples for 30 sec by hand wearing gloves. The lathered hair swatches were left in a plastic bowl for 2 min, then rinsed under running tap water for 20 sec. After removing excess water by squeezing the hair swatches between two fingers, they were left to dry in open air. The wet and dried hair swatches (1 and 3 days) were assessed by a panel of 4-6 experts with regard to odour intensity and quality. The odour intensity was recorded on an intensity scale of 0 (odourless) to 5 (extremely strong).

[2] = Odour description on paper blotter; conditions: 1% solution in EtOH on paper blotter, 24 h
[3] = Washtest with liquid detergent and sensory evaluation of fabric by expert panel; conditions: Table 3; for odour intensity, 1 day: dry fabric 1 day; for odour intensity, 1 day / odour intensity, 4 days / odour intensity, wet: scale 0 to 5; for odour intensity, 4 days: dry fabric 4 days; for odour on dry fabric / odour intensity, wet: heavy duty liquid detergent washtest; for odour intensity, wet: wet fabric
Procedure: The wet and line-dried fabric (1 and 4 days) was assessed by a panel of 4-6 experts with regard to odour intensity and quality. The odour intensity was recorded on an intensity scale of 0 (odourless) to 5 (extremely strong).
The odour intensity was recorded on an intensity scale of 0 (odorless) to 5 (extremely strong).
Heavy duty liquid detergent samples were prepared and used in washtests and subsequent sensory evaluation of the washed and dried fabric as described in Example 60a and c. The odour intensity was recorded on an intensity scale of 0 (odourless) to 5 (extremely strong).

[4] = Biodegradability, manometric respirometry test (OECD 301F); conditions: pass level 60% oxygen consumption of theory
Source text: The results of the biodegradability assessment by the manometric respirometry test (OECD guideline for the testing of materials No. 301F, Paris 1992) are summarized in Table 6.
A compound can be classified biodegradable, if it reaches the pass level of 60% oxygen consumption of theory required for complete mineralization.
It is readily biodegradable, if the pass level is reached within 10 days within the 28-day period of the test. The 10-day window begins when the degree of biodegradation has reached 10%. If the pass level is obtained after 28-day period of the test, the compound can be classified as inherently biodegradable.

C=CCC(CCCCCCCCC)Oc1ccc(CCC(C)=O)cc1 (stereo not drawn) [Example 36, 4-(4-(tridec-1-en-4-yloxy)phenyl)butan-2-one]
odour intensity, wet ([1]; 0.2% by weight in shampoo base): 2.3 | odour intensity, 1 day [1]: 1.9 | odour intensity, 3 days [1]: 1.6 | Odour description [2]: fruity, juicy, raspberry, aldehydic, green, metallic

C=CCC(CC/C=C\CC)Oc1cc(C)c(C(=O)OC)c(O)c1C (stereo not drawn) [Example 69, methyl (Z)-4-(deca-1,7-dien-4-yloxy)-2-hydroxy-3,6-dimethylbenzoate]
odour intensity, 1 day [3]: 1.9 | odour intensity, 4 days [3]: 2.5 | odour on dry fabric [3]: mossy, woody | odour intensity, wet [3]: 0.5 | Odour description [2]: powdery green marine (evernyl)

CCOc1cc(C=O)ccc1OCCC=CC(C)CCC=C(C)C (stereo not drawn) [Example 84, 4-((5,9-dimethyldeca-3,8-dien-1-yl)oxy)-3-ethoxybenzaldehyde]
odour intensity, wet ([1]; 0.2% by weight in shampoo base): 0.7 | odour intensity, 1 day [1]: 2.7 | odour intensity, 3 days [1]: 3.6 | Odour description [2]: powdery, vanilla, chocolate milk, slightly fresh, fatty, watery, melon

CC/C=C/CC(CCCCCCCCC)Oc1ccc(C=O)cc1OCC (stereo not drawn) [Example 29, (E)-3-ethoxy-4-(pentadec-3-en-6-yloxy)benzaldehyde]
Odour description [2]: powdery, creamy, vanilla, aldehydic, mandarin | Biodegradation in % [4]: 70%

CC(=O)CCc1ccc(OCCC=C(C)CCc2ccccc2)cc1 [Example 52, 4-(4-((4-methyl-6-phenylhex-3-en-1-yl)oxy)phenyl)butan-2-one]
odour intensity, 1 day [3]: 2.9 | odour intensity, 4 days [3]: 3.3 | odour on dry fabric [3]: raspberry, sweet | odour intensity, wet [3]: 1.6 | Odour description [2]: sweet, crystal sugar, fruity, raspberry

C=CCc1ccc(OC(CC=C)CCCCCCCCC)c(OC)c1 (stereo not drawn) [4-allyl-2-methoxy-1-(tridec-1-en-4-yloxy)benzene]
odour intensity, 1 day [3]: 2.1 | odour intensity, 4 days [3]: 2.7 | odour intensity, wet [3]: 2.1

COc1ccc(CCC(C)=CCCOc2ccc(CCC(C)=O)cc2)cc1 [Example 55, 4-(4-((6-(4-methoxyphenyl)-4-methylhex-3-en-1-yl)oxy)phenyl)butan-2-one]
odour intensity, wet ([1]; 0.2% by weight in shampoo base): 1.1 | odour intensity, 1 day [1]: 2.8 | odour intensity, 3 days [1]: 3.0 | Odour description [2]: sweet, fruity, raspberry

C=CCC(CC/C=C\CC)Oc1ccc(C=O)cc1OCC (stereo not drawn) [Example 12, (Z)-4-(deca-1,7-dien-4-yloxy)-3-ethoxybenzaldehyde]
odour intensity, 1 day [3]: 3.0 | odour intensity, 4 days [3]: 3.7 | odour intensity, wet [3]: 0.4 | Odour description [2]: powdery (vanilla)

CCCCCC(C)=CCCOc1ccc(C=O)cc1OCC [Example 42, 3-ethoxy-4-((4-methylnon-3-en-1-yl)oxy)benzaldehyde]
odour intensity, 1 day [3]: 2.8 | odour intensity, 4 days [3]: 3.3 | odour intensity, wet [3]: 2.1 | odour on dry hair ([1]; 0.2% by weight in shampoo base): vanilla, sweet | odour intensity, wet ([1]; 0.2% by weight in shampoo base): 1.0 | odour intensity, 1 day [1]: 1.4 | odour intensity, 3 days [1]: 1.9 | Odour description [2]: powdery, vanilla, sweet, sugary

C=CCC(CCCCCCCCCC)Oc1ccc(C=O)cc1OC (stereo not drawn) [Example 38, 3-methoxy-4-(tetradec-1-en-4-yloxy)benzaldehyde]
odour intensity, 1 day [3]: 3.0 | odour intensity, 4 days [3]: 3.2 | odour on dry fabric [3]: madeleine | odour intensity, wet [3]: 2.2 | Odour description [2]: powdery, vanilla, creamy, aldehydic, mandarin, madeleine

CCCCCCCCC(C)=CCCOc1ccc(C=O)cc1OCC [Example 90, 3-ethoxy-4-((4-methyldodec-3-en-1-yl)oxy)benzaldehyde]
odour intensity, wet ([1]; 0.2% by weight in shampoo base): 1.1 | odour intensity, 1 day [1]: 2.7 | odour intensity, 3 days [1]: 2.9 | Odour description [2]: powdery, vanilla, creamy, slightly green, sesame seed, sharp, technical

C=CCC(Oc1ccc(C=CC)cc1OC)C(C)=CCC (stereo not drawn) [Example 6, 2-methoxy-1-((5-methylocta-1,5-dien-4-yl)oxy)-4-(prop-1-en-1-yl)benzene]
Odour description [2]: woody (smokey, cedarwood, pyrogravure)

CC/C=C\CC(C/C=C\CC)Oc1ccc(C=O)cc1OCC [Example 41, 3-ethoxy-4-(((3Z,8Z)-undeca-3,8-dien-6-yl)oxy)benzaldehyde]
Odour description [2]: vanilla, powdery

CCCCCCC(C/C=C\CCCCCCCC(=O)OC)Oc1ccccc1OC (stereo not drawn) [Example 45, methyl (Z)-12-(2-methoxyphenoxy)octadec-9-enoate]
Odour description [2]: phenolic, medicinal, guaiacol, vanilla absolute, peru balsam

CCC=CCC(CCCCCCCCC)Oc1ccc(CCC(C)=O)cc1 (stereo not drawn) [Example 39, 4-(4-(pentadec-3-en-6-yloxy)phenyl)butan-2-one]
Odour description [2]: raspberry, mandarin, citrus, aldehydic, fresh

CCOc1cc(C=O)ccc1OCCC=C(C)Cc1ccccc1 [Example 50, 3-ethoxy-4-((4-methyl-5-phenylpent-3-en-1-yl)oxy)benzaldehyde]
Odour description [2]: powdery, vanilla, ice cream

CCCCCCC(CC=C(C)C)Oc1ccc(C=O)cc1OCC (stereo not drawn) [Example 4, 3-ethoxy-4-((2-methylundec-2-en-5-yl)oxy)benzaldehyde]
Odour description [2]: vanilla (powdery, creamy) dry (dough)

COC(=O)c1ccccc1OCCC=C(C)CCc1ccccc1 [Example 56, methyl 2-((4-methyl-6-phenylhex-3-en-1-yl)oxy)benzoate]
Odour description [2]: wintergreen, salicylate, slightly powdery, vanilla

CCOc1cc(C=O)ccc1OCCC=C(C)CCc1ccc2c(c1)OCO2 [Example 79, 4-((6-(benzo[d][1,3]dioxol-5-yl)-4-methylhex-3-en-1-yl)oxy)-3-ethoxybenzaldehyde]
Odour description [2]: sweet powdery, creamy, vanilla, vanitrope

CC/C=C\CCCC/C=C/CCOc1ccc(C=O)cc1OCC [Example 76, 4-(((3E,9Z)-dodeca-3,9-dien-1-yl)oxy)-3-ethoxybenzaldehyde]
Odour description [2]: green, melon, powdery, vanilla

CC/C=C\C/C=C\CCOc1ccccc1OC [Example 32, 1-methoxy-2-(((3Z,6Z)-nona-3,6-dien-1-yl)oxy)benzene]
Odour description [2]: green, leaf aldehyde

CCC=CCC(CCCCCC)Oc1ccc(C=O)cc1OCC (stereo not drawn) [Example 44, 4-(dodec-3-en-6-yloxy)-3-ethoxybenzaldehyde]
Odour description [2]: woody, cedarwood, vanilla

C=CCC(CCCCCC)Oc1cc(C)c(C(=O)OC)c(O)c1C (stereo not drawn) [Example 24, methyl 4-(dec-1-en-4-yloxy)-2-hydroxy-3,6-dimethylbenzoate]
Odour description [2]: powdery (mossy, evernyl)

CCOc1cc(C=O)ccc1OCC/C=C(\C)c1ccc2ccccc2c1 [Example 51, (E)-3-ethoxy-4-((4-(naphthalen-2-yl)pent-3-en-1-yl)oxy)benzaldehyde]
Odour description [2]: powdery, vanilla, ice cream, floral, neroli, orange flower, baby cologne, madeleine, fougassette

C=CCC(CCCCCCCCCC)Oc1ccccc1C(=O)OC (stereo not drawn) [Example 25, methyl 2-(tetradec-1-en-4-yloxy)benzoate]
Odour description [2]: aldehydic, metallic, green, citrus

CC/C=C/CC(CCC)Oc1ccc(C=O)cc1OCC (stereo not drawn) [Example 19, (E)-3-ethoxy-4-(non-6-en-4-yloxy)benzaldehyde]
Odour description [2]: vanilla powdery creamy

CCOc1cc(C=O)ccc1OCCC=C(C)CCc1ccccc1 [Example 47, 3-ethoxy-4-((4-methyl-6-phenylhex-3-en-1-yl)oxy)benzaldehyde]
odour intensity, 1 day [3]: 2.7 | odour intensity, 4 days [3]: 3.0 | odour intensity, wet [3]: 1.5 | odour intensity, wet ([1]; 0.2% by weight in shampoo base): 1.4 | odour intensity, 1 day [1]: 2.7 | odour intensity, 3 days [1]: 2.1 | Odour description [2]: sweet, vanilla, ice cream, powdery, fruity, raspberry, sorbet

CCOc1cc(C=O)ccc1OCCC=C(C)CCCc1ccccc1 [Example 58, 3-ethoxy-4-((4-methyl-7-phenylhept-3-en-1-yl)oxy)benzaldehyde]
Odour description [2]: powdery, vanilla, creamy, chocolate

C=CCC(CCCCCCCCCC)Oc1ccc(C=O)cc1OCC (stereo not drawn) [Example 27, 3-ethoxy-4-(tetradec-1-en-4-yloxy)benzaldehyde]
Odour description [2]: powdery, vanilla, aldehydic, metallic, green, citrus, mandarin

C=CCC(Oc1ccc(CCC(C)=O)cc1)C(C)=CCC (stereo not drawn) [Example 5, 4-(4-((5-methylocta-1,5-dien-4-yl)oxy)phenyl)butan-2-one]
Odour description [2]: fruity (powdery, sweet, raspberry)

C=C(C)[C@@H]1CC[C@@H](C)C[C@@H]1Oc1ccc(CCC(C)=O)cc1 [Example 14, 4-(4-(((1S,2S,5R)-5-methyl-2-(prop-1-en-2-yl)cyclohexyl)oxy)phenyl)butan-2-one]
Odour description [2]: sweet fruity (raspberry)

C=CCC(CCCCCCCCC)Oc1ccc(C=O)cc1OCC (stereo not drawn) [Example 91, 3-ethoxy-4-(tridec-1-en-4-yloxy)benzaldehyde]
Odour description [2]: powdery, vanilla, aldehydic, fruity, mandarin
